From ChEMBL document CHEMBL4831545, “Hormesis Effect of Berberine against Klebsiella pneumoniae Is Mediated by Up-Regulation of the Efflux Pump KmrA” (J Nat Prod, 2021)
The source made the active and inactive calls. The calls are words filed in the database; no cut-off is given here.

Legend:
Enterobacter cloacae [1] = test: Hormesis activity against Enterobacter cloacae assessed as increase in antibiotic MIC by measuring tetracycline MIC at 3 ug/ml incubated for 12 hrs by OD600 based analysis (reference value: 8 ug/ml); type: ADME, organism-based; conditions: in vivo, dose 3 µg/ml
Klebsiella pneumoniae [2] = test: Hormesis activity against overnight compound-treated Klebsiella pneumoniae deficient in KmrA gene expression assessed as increase in antibiotic MIC by measuring azithromycin MIC at 3 ug/ml incubated for 12 hrs by OD600 based analysis (reference value: 0.78125 ug/ml); type: ADME, organism-based; conditions: in vivo, dose 3 µg/ml
Klebsiella pneumoniae [3] = test: Hormesis activity against Klebsiella pneumoniae assessed as increase in antibiotic MIC by measuring meropenem MIC at 3 ug/ml incubated for 12 hrs by OD600 based analysis (reference value: 0.39625 ug/ml); type: ADME, organism-based; conditions: in vivo, dose 3 µg/ml
Acinetobacter baumannii [4] = test: Hormesis activity against Acinetobacter baumannii assessed as increase in antibiotic MIC by measuring ampicillin MIC at 3 ug/ml incubated for 12 hrs by OD600 based analysis (reference value: 100 ug/ml); type: ADME, organism-based; conditions: in vivo, dose 3 µg/ml
Acinetobacter baumannii [5] = test: Hormesis activity against overnight-compound treated Acinetobacter baumannii assessed as increase in antibiotic MIC by measuring cefotaxime MIC at 3 ug/ml incubated for 12 hrs by OD600 based analysis (reference value: 12.5 ug/ml); type: ADME, organism-based; conditions: in vivo, dose 3 µg/ml
Klebsiella pneumoniae [6] = test: Hormesis activity against Klebsiella pneumoniae assessed as increase in antibiotic MIC by measuring ampicillin MIC at 3 ug/ml incubated for 12 hrs by OD600 based analysis (reference value: 12.5 ug/ml); type: ADME, organism-based; conditions: in vivo, dose 3 µg/ml
Acinetobacter baumannii [7] = test: Hormesis activity against Acinetobacter baumannii assessed as promotion of bacterial growth at 3 to 50 ug/ml measured for 24 hrs in presence of efflux pump inhibitor, CCCP and 80 to 120 ug/ml tetracycline by OD600 based analysis; type: ADME, organism-based; conditions: in vivo, dose 3-50 µg/ml
[8] = Upregulation of KmrA promoter activity in Klebsiella pneumoniae assessed as increase in beta-galactosidase activity at 6 to 50 ug/ml by LacZ based OD600 analysis; type: ADME; conditions: dose 6-50 µg/ml
Klebsiella pneumoniae [9] = test: Hormesis activity against Klebsiella pneumoniae assessed as increase in antibiotic MIC by measuring rifampicin MIC at 3 ug/ml incubated for 12 hrs by OD600 based analysis (reference value: 25 ug/ml); type: ADME, organism-based; conditions: in vivo, dose 3 µg/ml
Enterobacter cloacae [10] = test: Hormesis activity against Enterobacter cloacae assessed as increase in antibiotic MIC by measuring ampicillin MIC at 3 ug/ml incubated for 12 hrs by OD600 based analysis (reference value: 25 ug/ml); type: ADME, organism-based; conditions: in vivo, dose 3 µg/ml
Acinetobacter baumannii [11] = test: Hormesis activity against overnight-compound treated Acinetobacter baumannii assessed as increase in antibiotic MIC by measuring streptomycin MIC at 3 ug/ml incubated for 12 hrs by OD600 based analysis (reference value: 400 ug/ml); type: ADME, organism-based; conditions: in vivo, dose 3 µg/ml
Acinetobacter baumannii [12] = test: Hormesis activity against Acinetobacter baumannii assessed as increase in antibiotic MIC by measuring cefotaxime MIC at 3 ug/ml incubated for 12 hrs by OD600 based analysis (reference value: 12.5 ug/ml); type: ADME, organism-based; conditions: in vivo, dose 3 µg/ml
Klebsiella pneumoniae [13] = test: Hormesis activity against overnight compound-treated Klebsiella pneumoniae assessed as increase in antibiotic MIC by measuring azithromycin MIC at 3 ug/ml incubated for 12 hrs by OD600 based analysis (reference value: 1.5625 ug/ml); type: ADME, organism-based; conditions: in vivo, dose 3 µg/ml
Klebsiella pneumoniae [14] = test: Hormesis activity against Klebsiella pneumonia assessed as promotion of bacterial growth at 3 to 50 ug/ml measured for 24 hrs in presence of 4 ug/ml tetracycline by OD600 based analysis; type: organism-based; conditions: in vivo, dose 3-50 µg/ml
Klebsiella pneumoniae [15] = test: Hormesis activity against overnight compound-treated Klebsiella pneumoniae assessed as increase in antibiotic MIC by measuring tetracycline MIC at 3 ug/ml incubated for 12 hrs by OD600 based analysis (reference value: 6 ug/ml); type: ADME, organism-based; conditions: in vivo, dose 3 µg/ml
Klebsiella pneumoniae [16] = test: Hormesis activity against Klebsiella pneumoniae deficient in KmrA gene expression assessed as increase in antibiotic MIC by measuring hygromycinMIC at 3 ug/ml incubated for 12 hrs by OD600 based analysis (reference value: 12.5 ug/ml); type: ADME, organism-based; conditions: in vivo, dose 3 µg/ml
Klebsiella pneumoniae [17] = test: Hormesis activity against Klebsiella pneumoniae deficient in KmrA gene expression assessed as increase in antibiotic MIC by measuring streptomycin MIC at 3 ug/ml incubated for 12 hrs by OD600 based analysis (reference value: 0.78125 ug/ml); type: ADME, organism-based; conditions: in vivo, dose 3 µg/ml
Klebsiella pneumoniae [18] = test: Hormesis activity against overnight compound-treated Klebsiella pneumoniae assessed as increase in antibiotic MIC by measuring streptomycin MIC at 3 ug/ml incubated for 12 hrs by OD600 based analysis (reference value: 0.78125 ug/ml); type: ADME, organism-based; conditions: in vivo, dose 3 µg/ml
Klebsiella pneumoniae [19] = test: Hormesis activity against Klebsiella pneumonia assessed as inhibition of bacterial growth at 12 ug/ml measured after 24 hrs by OD600 based analysis; type: functional, organism-based; conditions: dose 12.0 µg/ml
Klebsiella pneumoniae [20] = test: Hormesis activity against Klebsiella pneumoniae deficient in KmrA gene expression assessed as increase in antibiotic MIC by measuring chloramphenicol MIC at 3 ug/ml incubated for 12 hrs by OD600 based analysis (reference value: 6.25 ug/ml); type: ADME, organism-based; conditions: in vivo, dose 3 µg/ml
Klebsiella pneumoniae [21] = test: Hormesis activity against overnight compound-treated Klebsiella pneumoniae assessed as increase in antibiotic MIC by measuring chloramphenicol MIC at 3 ug/ml incubated for 12 hrs by OD600 based analysis (reference value: 6.25 ug/ml); type: ADME, organism-based; conditions: in vivo, dose 3 µg/ml
Klebsiella pneumoniae [22] = test: Hormesis activity against overnight compound-treated Klebsiella pneumoniae deficient in KmrA gene expression assessed as increase in antibiotic MIC by measuring atreonamMIC at 3 ug/ml incubated for 12 hrs by OD600 based analysis (reference value: 1.5625 ug/ml); type: ADME, organism-based; conditions: in vivo, dose 3 µg/ml
Enterobacter cloacae [23] = test: Hormesis activity against Enterobacter cloacae assessed as increase in antibiotic MIC by measuring chloramphenicol MIC at 3 ug/ml incubated for 12 hrs by OD600 based analysis (reference value: 3.125 ug/ml); type: ADME, organism-based; conditions: in vivo, dose 3 µg/ml
[24] = Upregulation of efflux pump KmrA gene expression in Klebsiella pneumoniae at 3 ug/ml incubated for 12 hrs by transcriptome analysis; type: ADME; conditions: dose 3 µg/ml
Klebsiella pneumoniae [25] = test: Hormesis activity against Klebsiella pneumonia assessed as inhibition of bacterial growth by measuring shortened logarithmic growth phase at 25 to 50 ug/ml measured after 24 hrs by OD600 based analysis; type: functional, organism-based; conditions: dose 25-50 µg/ml
Enterobacter cloacae [26] = test: Hormesis activity against overnight compound-treated Enterobacter cloacae assessed as increase in antibiotic MIC by measuring streptomycin MIC at 3 ug/ml incubated for 12 hrs by OD600 based analysis (reference value: 12.5 ug/ml); type: ADME, organism-based; conditions: in vivo, dose 3 µg/ml
Acinetobacter baumannii [27] = test: Hormesis activity against Acinetobacter baumannii assessed as promotion of bacterial growth by measuring prolonged logarithmic growth phase at 3 to 50 ug/ml measured for 24 hrs by OD600 based analysis; type: organism-based; conditions: in vivo, dose 3-50 µg/ml
Enterobacter cloacae [28] = test: Hormesis activity against overnight compound-treated Enterobacter cloacae assessed as increase in antibiotic MIC by measuring atreonamMIC at 3 ug/ml incubated for 12 hrs by OD600 based analysis (reference value: 3.125 ug/ml); type: ADME, organism-based; conditions: in vivo, dose 3 µg/ml
Klebsiella pneumoniae [29] = test: Hormesis activity against Klebsiella pneumoniae assessed as increase in antibiotic MIC by measuring cefotaxime MIC at 3 ug/ml incubated for 12 hrs by OD600 based analysis (reference value: 0.39625 ug/ml); type: ADME, organism-based; conditions: in vivo, dose 3 µg/ml

MIC (Enterobacter cloacae [1]): 8 µg/mL
MIC (Klebsiella pneumoniae [2]): 1.5625 µg/mL
MIC (Klebsiella pneumoniae [3]): 0.3962 µg/mL
MIC (Acinetobacter baumannii [4]): 200 µg/mL
MIC (Acinetobacter baumannii [5]): 12.5 µg/mL
MIC (Klebsiella pneumoniae [6]): 12.5 µg/mL
MIC (Klebsiella pneumoniae [9]): 25 µg/mL
MIC (Enterobacter cloacae [10]): 25 µg/mL
MIC (Acinetobacter baumannii [11]): 400 µg/mL
MIC (Acinetobacter baumannii [12]): 12.5 µg/mL
MIC (Klebsiella pneumoniae [13]): 3.125 µg/mL
MIC (Klebsiella pneumoniae [15]): 12 µg/mL
MIC (Klebsiella pneumoniae [16]): 12.5 µg/mL
MIC (Klebsiella pneumoniae [17]): 0.7812 µg/mL
MIC (Klebsiella pneumoniae [18]): 3.125 µg/mL
MIC (Klebsiella pneumoniae [20]): 6.25 µg/mL
MIC (Klebsiella pneumoniae [21]): 6.25 µg/mL
MIC (Klebsiella pneumoniae [22]): 1.5625 µg/mL
MIC (Enterobacter cloacae [23]): 3.125 µg/mL
MIC (Enterobacter cloacae [26]): 25 µg/mL
MIC (Enterobacter cloacae [28]): 3.125 µg/mL
MIC (Klebsiella pneumoniae [29]): 0.3962 µg/mL
Compound: COc1ccc2cc3[n+](cc2c1OC)CCc1cc2c(cc1-3)OCO2 [BERBERINE]
Activity (Acinetobacter baumannii [7]): Non-Toxic
Activity [8]: Toxic
Activity (Klebsiella pneumoniae [14]): Toxic
Activity (Klebsiella pneumoniae [19]): Active
Activity [24]: Toxic
Activity (Klebsiella pneumoniae [25]): Active
Activity (Acinetobacter baumannii [27]): Toxic
